Experimental data: patent US11344527B2, “Methods and compositions for treating cancer” (Sutter West Bay Hospitals, priority 2007, dated 2022)
“Also recorded” adds a separate entry of the source. Like-named read-outs stand apart in the source and are kept apart here.

Legend:
Id-1 [1] = experiment: Id-1 protein expression by quantitative Western analysis, MDA-MB231; assay type: cell-based, human; details: MDA-MB231 cells, 1.5 μM, two days, FIG. 1E
From the text: Proteins were separated by SDS/PAGE, blotted on Immobilon membrane, and probed with anti-Id-1 and the appropriate secondary antibody. Band intensity values were obtained directly from the blot using AlphaeaseFC software (San Leandro, Calif.) or from film using Image-J (NIH, MD). As a normalization control for loading, blots were stripped and re-probed with mouse alpha-tubulin (Abeam, Cambridge, Mass.).
The ability of CBD to regulate the expression of key genes that control breast cancer cell aggressiveness and invasiveness was determined A potential candidate protein that could mediate the effects of CBD on both phenotypes was the helix-loop-helix protein Id-1. […] The inhibitory effect of CBD on Id-1 expression occurred at concentrations as low as 100 nM. […] The CBD concentrations effective at inhibiting Id-1 expression correlated with those used to inhibit the proliferative and invasive phenotype of MDA-MB231 cells. Furthermore, the time period needed to observe the down-regulation of Id-1 protein in the presence of CBD correlated with the inhibitory effects of CBD on the aggressiveness and invasiveness of MDA-MB231 cells (FIG. 1, panel D).
In order to determine the SAR between cannabinoids and the inhibition of Id-1, MDA-MB231 cells were treated for two days with multiple cannabinoid compounds and Id-1 protein levels were assessed.

MDA-MB436 cells = experiment: MTT cell proliferation assay, MDA-MB436; details: read-out: IC50 antiproliferative, MDA-MB436
MDA-MB231 cells [2] = experiment: MTT cell proliferation assay, MDA-MB231; details: read-out: IC50 antiproliferative, MDA-MB231
SF126 cells = experiment: MTT cell proliferation assay, SF126 GBM cells; assay type: cell-based, human
Experimental: (§1) The human GBM cell lines used were SF126, U87 and U251. Cell lines were maintained at 37° C. and 5% CO2.
(§2) Treatment groups were divided into 1) no treatment (control), 2) Δ^9-THC alone, 3) CBD alone, 4) Δ^9-THC and CBD combined. Positive and negative aspects of constituent interaction were determined in this 2×2 design using 2-way analysis of variance as described by (Slinker, 1998). […] Significant differences were also determined using ANOVA where suitable. […] P values <0.05 defined statistical significance.

U251 cells [3] = experiment: MTT cell proliferation assay, U251 GBM cells; assay type: cell-based, human; details: 95% confidence limits
Experimental: as §1, §2

U87 cells = experiment: MTT cell proliferation assay, U87 GBM cells; assay type: cell-based, human; details: 95% confidence limits
Experimental: as §1, §2

MDA-MB231 cells [4] = experiment: Boyden chamber invasion assay, MDA-MB231; assay type: cell-based, human; details: for invasion of MDA-MB231 cells: 0.1, 1.0 or 1.5 μM, FIG. 1A
Experimental: Invasion is an important step towards breast cancer cell metastasis. Therefore, the effects of several cannabinoids were tested on their ability to modulate the migratory and invasiveness activity of the most aggressive human breast cancer cell line, MDA-MB231, in a reconstituted basement membrane in a Boyden chamber.

U251 cells [5] = experiment: Cell cycle analysis (PI staining, FACS), U251; assay type: cell-based, human; details: Δ9-THC 1.7 μM and/or CBD 0.4 μM, FIG. 8
Experimental: U251 cells were grown in Petri dishes (100 mm×15 mm) and received drug treatments for 2 days. On the third day, the cells were harvested and centrifuged at 1200 rpm for 5 minutes. The pellet was washed 1× with PBS+1% BSA, and centrifuged again. The pellet was resuspended in 0.5 ml of 2% paraformaldehyde (diluted with PBS) and left to fix overnight at room temperature. The next day the cells were pelleted and resuspended in 0.5 ml 0.3% Triton in PBS and incubated for 5 minutes at room temperature. The cells were then washed 2 times with PBS+1% BSA. The cells were finally suspended in PBS (0.1% BSA) with 10 ug/ml Propidium Iodide and 100 μg/ml RNAse. The cells were incubated for 30 minutes at room temperature before being stored at 4 C. Cell cycle was measured using a FACS Calibur using Cell Quest Pro and Modfit software.

ERK, JNK, and p38 MAPK = experiment: MAPK activity (pERK, ERK, JNK, p38) by Western analysis, U251; assay type: cell-based, human
Experimental: Cells cultured and treated in 6-well dishes were washed twice with cold PBS. Lysis buffer was added and cells lysed by freezing for 10 min at −70° C. and then thawing. Cell lysate was collected and the concentration was determined using Bradford reagent. Equal amounts of protein were heated to 90° C. in Laemmli sample buffer with β-mercaptoethanol, and loaded onto a precast SDS-PAGE gel (Bio-Rad Laboratories, Hercules, Calif.). Protein was transferred to an Immobilon membrane (Millipore, Billerica, Mass.) overnight at 2-4° C. Blots were then blocked with 5% nonfat dry milk in TBS+Tween for 1 h. Primary antibody from Millipore (rabbit anti-phospho-JNK, rabbit anti-phospho-p38, rabbit anti-phospho-ERK1/2 and rabbit anti-ERK1/2, 1 mcg/mL) in blocking buffer was then added for 1 h. The blots were then rinsed three times 10 min with TBS+Tween. Secondary antibody (Donkey Anti-Rabbit IgG, Jackson Immunoresearch, West Grove, Pa.) was then added. Blots were incubated for 45 min and then washed 4 times for 15 min each. The blots were developed with SuperSignal Femto (Pierce, Rockford, Ill.), and imaged on either a Fluorchem 8900 (Alpha Innotech, San Leandro, Calif.) or ECL Hyperfilm (Amersham-Pharmacia, Piscataway, N.J.). Band intensity values were obtained (after background subtraction) directly from the […] using AlphaeaseFC software (San Leandro, Calif.) or from film using Image-J (NIH, MD). As a normalization control for loading, blots were stripped and re-probed with mouse alpha-tubulin (Abcam, Cambridge, Mass.) and goat anti-mouse IgG (Jackson Immunoresearch) for the primary and secondary antibodies, respectively.
The regulation of ERK, JNK, and p38 MAPK activity plays a role in controlling cell growth and apoptosis. U251 cells were used to determine whether modulation of ERK, JNK, and p38 MAPK activity occurred.

Id-1 promoter = Id-1 promoter luciferase reporter assay, MDA-MB231; assay type: cell-based, human; details: MDA-MB231 cells, 1.5 μM, 2 or 3 days; FIG. 2B, C
Experimental: A SacI-BspHI fragment of 2.2 kb corresponding to the 5′ upstream region of human Id-1 gene and driving a luciferase gene in a PGL-3 vector (Promega) has already been described (Id-1-sbsluc). Cells were plated in six well dishes in medium supplemented with 10% FBS and 5 μg/ml insulin. After 24 h, cells were cotransfected with […] of luciferase reporter plasmids and 2 μg of pCMVβ (Clontech) using superfect reagent (Qiagen). pCMVβ contained bacterial β-galactosidase and served to control for variation in transfection efficiency. 3 h after transfection, the cells were rinsed twice with PBS and were cultured in the absence or presence of CBD for 48-72 h. Cell pellets were lysed in 80 μl of reporter lysis buffer (Promega) for 10 min at room temperature. Lysed cells were centrifuged and supernatants harvested. […]
To determine if this effect was due to the inhibition of transcription, a construct was used that contained the Id-1 promoter fused to a luciferase reporter in a PGL-3 basic vector. […] Twenty-four hours after transfection, MDA-MB231-Id-1-luc cells were treated with CBD for 2 or 3 days and luciferase activity was measured (FIG. 2, panel B and panel C). […] These findings correlated to the data obtained when the expression of the Id-1 protein was assessed by Western analysis.

Id-1 [6] = experiment: Id-1 protein expression by Western blot, U251; assay type: cell-based, human; details: FIG. 11
[7] = Homo sapiens, SF-126, 72 h, three day treatment, 95% confidence limits (Table 4), read-out: IC50 antiproliferative, SF126
[8] = treated for three days, value with confidence limits
[9] = three day treatment, 95% confidence limits (Table 4), read-out: IC50 antiproliferative, SF126

## CCCCCc1cc(O)c2c(c1)OC(C)(C)c1ccc(C)cc1-2 [CBN, cannabinol]
Id-1 [1]
  inhibition of Id-1 protein (structure activity relationship): partially inhibit
MDA-MB436 cells; Homo sapiens, MDA-MB-436, 72 h
  IC50: 2600 nM
MDA-MB231 cells [2]; Homo sapiens, MDA-MB-231, 72 h
  IC50: 1200 nM
SF126 cells; [7]
  IC50: 1200 nM

## CCCCCCC(C)(C)c1ccc([C@@H]2C[C@H](O)CC[C@H]2CCCO)c(O)c1 [CP 55,940]
Id-1 [1]
  inhibition of Id-1 protein (structure activity relationship): partially inhibit; also recorded: inhibited Id-1 expression
Id-1 [1]; 940
  inhibition of Id-1 protein (structure activity relationship): small inhibition
MDA-MB436 cells; [8]
  IC50: 1300 nM
MDA-MB231 cells [2]; [8]
  IC50: 2500 nM
SF126 cells; [9]
  IC50: 3300 nM

## Cc1c(C(=O)c2cccc3ccccc23)c2cccc3c2n1[C@H](CN1CCOCC1)CO3 [WIN 55,212-2]
U251 cells [3]; seven day treatment, read-out: IC50 antiproliferative, U251
  IC50: 1100 nM
U87 cells; seven day treatment, read-out: IC50 antiproliferative, U87
  IC50: 770 nM
MDA-MB436 cells; [8]
  IC50: 2400 nM
MDA-MB231 cells [2]; [8]
  IC50: 1700 nM
MDA-MB231 cells [4]
  invasion of MDA-MB231 cells: significantly reduced
SF126 cells; seven day treatment, 95% confidence limits, read-out: IC50 antiproliferative, SF126
  IC50: 840 nM
SF126 cells; [9]
  IC50: 1300 nM

## C=C(C)[C@@H]1CCC(C)=C[C@H]1c1c(C)cc(O)cc1O [0-1602]
Id-1 [1]
  inhibition of Id-1 protein (structure activity relationship): No inhibition

## CCCCCc1cc(O)c(C/C=C(\C)CCC=C(C)C)c(O)c1 [CBG, cannabigerol]
MDA-MB436 cells; Homo sapiens, MDA-MB-436, 72 h
  IC50: 2100 nM
MDA-MB231 cells [2]; Homo sapiens, MDA-MB-231, 72 h
  IC50: 2300 nM
SF126 cells; [7]
  IC50: 1600 nM

## C=C(C)[C@@H]1CCC(C)=C[C@H]1c1c(O)cc(CCCCC)cc1O [CBD, cannabidiol]
U251 cells [5]
  cell cycle distribution: increases in the population of cells in G1 and G2/M phase and decreases in cells in S phase
ERK, JNK, and p38 MAPK; U251, three days, 2.5 μM Δ9-THC, 2.0 μM CBD, or 1.7 μM/0.4 μM combination, FIG. 6D
  p-ERK, higher concentrations alone compared with the combination: small inhibition
ERK, JNK, and p38 MAPK; U251, Δ9-THC 1.7 μM and/or CBD 0.4 μM, two days, FIG. 4
  p-ERK: no changes
U251 cells [3]; Homo sapiens, U-251, 72 h, three day treatment, read-out: CBD IC50, U251
  IC50: 600 nM
Id-1 promoter
  Id-1 promoter luciferase activity: significant inhibition
Id-1 [6]
  Id-1 protein expression in U251 cells: concentration-dependent inhibition
U87 cells; Homo sapiens, U-87 MG, 72 h, three day treatment, read-out: CBD IC50, U87
  IC50: 700 nM
MDA-MB436 cells; Homo sapiens, MDA-MB-436, 72 h
  IC50: 1500 nM
MDA-MB231 cells [4]; 1.5 μM, two day treatment, empty pLXSN vector, FIG. 7
  cell invasiveness, control MDA-MB231 (-Id1) cells: significant reduction
MDA-MB231 cells [4]
  invasion of MDA-MB231 cells: significantly reduced
SF126 cells; [7]
  IC50: 1200 nM
SF126 cells; Homo sapiens, SF-126, 72 h, three day treatment, 95% confidence limits, read-out: CBD IC50, SF126
  IC50: 1200 nM
SF126 cells; Homo sapiens, SF-126, limits 0.64-0.82, reported with the Table 3 experiments, read-out: IC50 antiproliferative, SF126
  IC50: 730 nM

## C=C(C)[C@@H]1CCC(C)=C[C@H]1c1c(O)cc(O)cc1CCCCC [Abn-CBD]
Id-1 [1]
  inhibition of Id-1 protein (structure activity relationship): No inhibition
